Measured values reported in ChEMBL document CHEMBL4118177, “Valproic acid induces three novel cytotoxic secondary metabolites in Diaporthe sp., an endophytic fungus from Datura inoxia Mill” (Bioorg Med Chem Lett, 2018).
Active and inactive are the calls of the source. The rule behind the calls is not given here.

Assays:
[1] = Antioxidant activity assessed as DPPH free radical scavenging activity at 25 uM after 30 mins in dark by spectrophotometric method relative to control; format: functional
[2] = Antioxidant activity assessed as DPPH free radical scavenging activity at 100 uM after 30 mins in dark by spectrophotometric method relative to control; format: functional
[3] = Antioxidant activity assessed as DPPH free radical scavenging activity at 12.5 uM after 30 mins in dark by spectrophotometric method relative to control; format: functional
[4] = tested on: Pseudomonas aeruginosa; assay: Antibacterial activity against Pseudomonas aeruginosa ATCC 27853 at 62.5 uM after 24 hrs; format: functional, organism-based
[5] = tested on: MCF7; assay: Cytotoxicity against human MCF7 cells assessed as reduction in cell viability after 48 hrs by MTT assay; format: functional, cell-based; conditions: MCF7, 48 h
[6] = Antioxidant activity assessed as DPPH free radical scavenging activity after 30 mins in dark by spectrophotometric method; format: functional
[7] = Antioxidant activity assessed as DPPH free radical scavenging activity at 50 uM after 30 mins in dark by spectrophotometric method relative to control; format: functional
[8] = tested on: PC-3; assay: Cytotoxicity against human PC3 cells assessed as reduction in cell viability after 48 hrs by MTT assay; format: functional, cell-based; conditions: PC-3, 48 h
[9] = tested on: MIA PaCa-2; assay: Cytotoxicity against human MIAPaCa2 cells assessed as reduction in cell viability after 48 hrs by MTT assay; format: functional, cell-based; conditions: MIA PaCa-2, 48 h
[10] = tested on: Escherichia coli; assay: Antibacterial activity against Escherichia coli ATCC 25922 at 62.5 uM after 24 hrs; format: functional, organism-based
[11] = tested on: Staphylococcus aureus; assay: Antibacterial activity against Staphylococcus aureus ATCC 25923 at 62.5 uM after 24 hrs; format: functional, organism-based
[12] = Antioxidant activity assessed as DPPH free radical scavenging activity at 6.25 uM after 30 mins in dark by spectrophotometric method relative to control; format: functional
[13] = tested on: T47D; assay: Cytotoxicity against human T47D cells; format: functional, cell-based

SMILES	Activity [1]	Activity [2]	Activity [3]	Activity [4]	IC50 [5]	EC50 [6]	Activity [7]	IC50 [8]	IC50 [9]	Activity [10]	Activity [11]	Activity [12]	IC50 [13]
CCC/C=C/[C@@H]1OC(=O)c2cc(O)cc(O)c2[C@@H]1O	58%	61%	55%	inactive	> 50 µM	10.3 µM	59%	> 50 µM	> 50 µM	inactive	inactive	34.3%	–
CCC[C@@H]1C[C@H](O)[C@@H](O)/C=C/C=C\C(=O)O1	37.4%	39.1%	36.6%	inactive	29 µM	> 100 µM	38.5%	18 µM	32 µM	inactive	inactive	35%	7 µM
O=C(O)c1cn(C2CC2)c2cc(N3CCNCC3)c(F)cc2c1=O	–	–	–	Active	–	–	–	–	–	Active	Active	–	–
CCC[C@H]1OC(=O)/C=C\C=C\[C@H](O)[C@@H](O)[C@@H]1[C@H](C)COC(=O)c1ccc(O)cc1	48.3%	63%	26.8%	inactive	30 µM	27.5 µM	59%	14 µM	20 µM	inactive	inactive	22.1%	–
O=C1O[C@H]([C@@H](O)CO)C(O)=C1O [ASCORBIC ACID]	76.5%	87.8%	60.9%	–	–	6.2 µM	85.8%	–	–	–	–	52.7%	–
CCC[C@@H]1C[C@H](O)[C@@H](OC)/C=C/C=C\C(=O)O1	7.12%	10%	4.04%	inactive	> 50 µM	> 100 µM	8.13%	22 µM	34 µM	inactive	inactive	2.37%	–
CC(=O)O[C@H]1C(=O)[C@@]2(C)[C@H]([C@H](OC(=O)c3ccccc3)[C@]3(O)C[C@H](OC(=O)[C@H](O)[C@@H](NC(=O)c4ccccc4)c4ccccc4)C(C)=C1C3(C)C)[C@]1(OC(C)=O)CO[C@@H]1C[C@@H]2O [PACLITAXEL]	–	–	–	–	–	–	–	0.007 µM	0.006 µM	–	–	–	–
